Reference: patent US5508293A, “Pyridinecarboxyimidamide compounds and the use thereof” (Kirin Beer Kabushiki Kaisha, priority 1992, dated 1996)

Columns and labels:
[1] = Acute toxicity, oral, Compound No. 6; assay type: in vivo, rat (male SD rats, 5 weeks old); conditions: rat, in vivo, male SD rats (5 weeks old)
Procedure: (§1) Acute toxicity of 5-amino-N-cyano-N'-[2-(2-chlorophenyl)ethyl]-3-pyridinecarboximidamide (Compound No. 6) of the present invention on oral administration was examined with male SD rats (5 weeks old). As a result, no rats died at the dose of 50 mg/kg. LD50 was in the range over 50 mg/kg.

male SD rats = assay: Acute toxicity, oral, Compound No. 6; assay type: in vivo, rat (male SD rats, 5 weeks old); conditions: 50 mg/kg, male SD rats
Procedure: as §1

beagles, blood pressure = assay: Antihypertensive activity on anesthetized beagles (intravenously); assay type: in vivo, dog (beagles)
Procedure: Antihypertensive activities of 5-amino-N-cyano-N'-[2-(2-chlorophenyl)ethyl]-3-pyridinecarboximidamide (N-cyano-N'-[2-(2-chlorophenyl)ethyl]-5-(3aminopyridine)carboximidamide; Compound No. 6) according to the present invention was assessed by comparison with those of N-cyano-N'-[2-(2-chlorophenyl)ethyl]-3-pyridinecarboximidamide which is thought to be a wellknown compound most similar to the compound of the present invention (see Japanese Patent Laid-Open Publication No. 163061/1991).
Experiments were carried out with beagles (body weight, 9.2-10.4 kg) under anesthetization by intravenous administering 30 mg/kg of pentobarbital sodium. A cannula was inserted into the right femoral artery for measuring blood pressure. […]

[2] = test system: spontaneously hypertensive rats (SHR), mean blood pressure; assay: Antihypertensive activities on spontaneously hypertensive rat (intravenously); assay type: in vivo, rat (male spontaneously hypertensive rats; conditions: iv, anesthetized male SHR, i.v., cumulative dosing, read-out: ED20 (the dose which lowered the blood pressure by 20%)
Procedure: Animals were anesthetized with urethane: α-chloralose.
A cannula was inserted into the carotid artery for measuring the mean blood pressure via a pressure transducer. A test compound was cumulatively administered through the cannula inserted into the femoral vein with an interval of 30 minutes. Variation of blood pressure was determined as the percentage change in the blood pressure before administration of the test compound, and the ED20 (the dose which lowered the blood pressure by 20%) was calculated from a dose-response curve.

[3] = test system: renal hypertensive beagles, blood pressure; assay: Antihypertensive activities on renal hypertensive beagles (oral); assay type: in vivo, dog (2-kidney-1-clipped renal hypertensive beagles)
Procedure: Beagles (body weight, 9.0-11.0 kg) were anesthetized with 30 mg/kg of pentobarbital sodium intravenously. The left renal artery was carefully exposed through a flank incision, and wound with two silk sutures and ligated together with a 18G needle (external diameter; 1.2 mm) at two positions with the distance of 5 mm. A polyethylene tube for the measurement of blood pressure (IMG, PE-100) was inserted into the femoral artery, and the other terminal of the tube was exteriorized at the back of the neck. The polyethylene tube was filled with physiological saline containing 500 U/ml of heparin and sealed with a steel wire plug except on the measurement of the blood pressure. Antibiotics (penicilline and streptomycin, manufactured by Meiji Seika) were administered intramuscularly for three days after operation to prevent infections.
After 5-amino-N-cyano-N'-[2-(2-chlorophenyl)ethyl]-3-pyridinecarboximidamide was put into a No. 3 gelatin capsule, a gap was filled with lactose (100 mesh). The capsule was administered orally, and blood pressure was measured for 24 hours after administering the drug. Measurement was carried out without anesthetization under suspension with sling sheet. Blood pressure was measured by connecting the tube for measuring blood pressure to a pressure transducer (TP-400T; manufactured by Nihon Kohden) and recorded on a polygraph.

Structure (SMILES): N#CNC(=NCCc1ccccc1Cl)c1cncc(N)c1 [Compound No. 6, 5-amino-N-cyano-N'-[2-(2-chlorophenyl)ethyl]-3-pyridinecarboximidamide]
- LD50 [1]: > 50000 µg/kg
- deaths (male SD rats): no rats died
- decrease in blood pressure (beagles, blood pressure; i.v., 3-30 μg/kg): Dose-dependent decrease in blood pressure was observed
- duration of the antihypertensive action (beagles, blood pressure; i.v., dose 3 μg/kg): 10 min
- Antihypertensive activity (%) (beagles, blood pressure; i.v., dose 3 μg/kg, 0 min after dosage): 0.0%
- Antihypertensive activity (%) (beagles, blood pressure; i.v., dose 3 μg/kg, 1 min after dosage): -3.9%
- Antihypertensive activity (%) (beagles, blood pressure; i.v., dose 3 μg/kg, 2 min after dosage): -12.8%
- Antihypertensive activity (%) (beagles, blood pressure; i.v., dose 3 μg/kg, 3 min after dosage): -10.3%
- Antihypertensive activity (%) (beagles, blood pressure; i.v., dose 3 μg/kg, 5 min after dosage): -6.4%
- Antihypertensive activity (%) (beagles, blood pressure; i.v., dose 3 μg/kg, 7.5 min after dosage): -3.9%
- Antihypertensive activity (%) (beagles, blood pressure; i.v., dose 3 μg/kg, 10 min after dosage): -3.9%
- duration of the antihypertensive action (beagles, blood pressure; i.v., dose 10 μg/kg): 45 min
- Antihypertensive activity (%) (beagles, blood pressure; i.v., dose 10 μg/kg, 0 min after dosage): 0.0%
- Antihypertensive activity (%) (beagles, blood pressure; i.v., dose 10 μg/kg, 1 min after dosage): -16.0%
- Antihypertensive activity (%) (beagles, blood pressure; i.v., dose 10 μg/kg, 2 min after dosage): -22.7%
- Antihypertensive activity (%) (beagles, blood pressure; i.v., dose 10 μg/kg, 3 min after dosage): -26.7%
- Antihypertensive activity (%) (beagles, blood pressure; i.v., dose 10 μg/kg, 5 min after dosage): -26.7%
- Antihypertensive activity (%) (beagles, blood pressure; i.v., dose 10 μg/kg, 7.5 min after dosage): -26.7%
- Antihypertensive activity (%) (beagles, blood pressure; i.v., dose 10 μg/kg, 10 min after dosage): -26.7%
- Antihypertensive activity (%) (beagles, blood pressure; i.v., dose 10 μg/kg, 15 min after dosage): -20.0%
- Antihypertensive activity (%) (beagles, blood pressure; i.v., dose 10 μg/kg, 20 min after dosage): -16.0%
- Antihypertensive activity (%) (beagles, blood pressure; i.v., dose 10 μg/kg, 30 min after dosage): -13.3%
- Antihypertensive activity (%) (beagles, blood pressure; i.v., dose 10 μg/kg, 45 min after dosage): -6.7%
- duration of the antihypertensive action (beagles, blood pressure; i.v., dose 30 μg/kg): 60 min
- Antihypertensive activity (%) (beagles, blood pressure; i.v., dose 30 μg/kg, 0 min after dosage): 0.0%
- Antihypertensive activity (%) (beagles, blood pressure; i.v., dose 30 μg/kg, 1 min after dosage): -29.3%
- Antihypertensive activity (%) (beagles, blood pressure; i.v., dose 30 μg/kg, 2 min after dosage): -40.0%
- Antihypertensive activity (%) (beagles, blood pressure; i.v., dose 30 μg/kg, 3 min after dosage): -42.7%
- Antihypertensive activity (%) (beagles, blood pressure; i.v., dose 30 μg/kg, 5 min after dosage): -46.7%
- Antihypertensive activity (%) (beagles, blood pressure; i.v., dose 30 μg/kg, 7.5 min after dosage): -44.0%
- Antihypertensive activity (%) (beagles, blood pressure; i.v., dose 30 μg/kg, 10 min after dosage): -42.7%
- Antihypertensive activity (%) (beagles, blood pressure; i.v., dose 30 μg/kg, 15 min after dosage): -40.0%
- Antihypertensive activity (%) (beagles, blood pressure; i.v., dose 30 μg/kg, 20 min after dosage): -36.0%
- Antihypertensive activity (%) (beagles, blood pressure; i.v., dose 30 μg/kg, 30 min after dosage): -33.3%
- Antihypertensive activity (%) (beagles, blood pressure; i.v., dose 30 μg/kg, 45 min after dosage): -24.0%
- Antihypertensive activity (%) (beagles, blood pressure; i.v., dose 30 μg/kg, 60 min after dosage): -16.0%
- antihypertensive activity determined with the passage of time (beagles, blood pressure; summary statement): extremely potent and sustainable
- ED20 [2]: 4.6 µg/kg
- Average blood pressure ([3]; 0.25 mg/kg p.o., 0 hour after administration): 122.4 ± 4.4 mmHg
- Average blood pressure ([3]; 0.25 mg/kg p.o., 1 hour after administration): 100.9 ± 7.4 mmHg
- Average blood pressure ([3]; 0.25 mg/kg p.o., 2 hour after administration): 85.7 ± 0.3 mmHg
- Average blood pressure ([3]; 0.25 mg/kg p.o., 4 hour after administration): 102.8 ± 3.9 mmHg
- Average blood pressure ([3]; 0.25 mg/kg p.o., 6 hour after administration): 110.1 ± 2.6 mmHg
- Average blood pressure ([3]; 0.25 mg/kg p.o., 8 hour after administration): 112.6 ± 3.4 mmHg
- Average blood pressure ([3]; 0.25 mg/kg p.o., 24 hour after administration): 118.8 ± 4.8 mmHg
- Average blood pressure ([3]; 0.50 mg/kg p.o., 0 hour after administration): 126.6 ± 0.5 mmHg
- Average blood pressure ([3]; 0.50 mg/kg p.o., 1 hour after administration): 68.1 ± 7.4 mmHg
- Average blood pressure ([3]; 0.50 mg/kg p.o., 2 hour after administration): 84.8 ± 6.1 mmHg
- Average blood pressure ([3]; 0.50 mg/kg p.o., 4 hour after administration): 99.7 ± 12.3 mmHg
- Average blood pressure ([3]; 0.50 mg/kg p.o., 6 hour after administration): 106.2 ± 9.5 mmHg
- Average blood pressure ([3]; 0.50 mg/kg p.o., 8 hour after administration): 114.4 ± 7.3 mmHg
- Average blood pressure ([3]; 0.50 mg/kg p.o., 24 hour after administration): 111.8 ± 3.9 mmHg
- decrease in blood pressure ([3]; oral, 0.25 and 0.5 mg/kg): successive decrease in blood pressure was observed
